A short description of data set [1]: ABTS radical scavenging activity assessed as trolox equivalent antioxidant capacity. In kind it is physicochemical.
Data set [2] in a line: DPPH radical scavenging activity assessed as trolox equivalent antioxidant capacity. The data set is classed as functional. In general terms: DPPH is a stable violet radical that fades when it is reduced.
A short description of data set [3]: Antioxidant activity assessed as ABTS radical scavenging activity. The data set is classed as functional.

In the case of `O=c1cc(-c2ccccc2)oc2cc(O)c(O)c(O)c12` [BAICALEIN], the Activity in data set [1] was 2.56 MU; in data set [2], 2.74 MU.
The corresponding values for `O=c1cc(-c2ccc(O)c(O)c2)oc2cc(O)cc(O)c12` [LUTEOLIN] are 2.18 MU and 2.24 MU.
The matching figures for `C[C@@H]1O[C@@H](Oc2cc(O)c3c(=O)c(O[C@@H]4O[C@H](CO)[C@@H](O)[C@H](O)[C@H]4O)c(-c4ccc(O)c(O)c4)oc3c2)[C@@H](O)[C@H](O)[C@@H]1O`: 1.56 MU and 1.63 MU.
The matching figures for `O=C(O)[C@H]1O[C@@H](Oc2cc3oc(-c4ccccc4)cc(=O)c3c(O)c2O)[C@H](O)[C@@H](O)[C@@H]1O` [BAICALIN]: 1.55 MU and 1.79 MU.
As for `O=C(CCc1ccc(O)cc1)c1c(O)cc(O)cc1O` [PHLORETIN], the figures for the Activity in data set [1] and in data set [2] were 1.79 MU and 1.24 MU, respectively.
The matching figures for `Oc1cc(O)c2c(c1)O[C@H](c1ccc(O)c(O)c1)[C@H](O)[C@H]2c1c(O)cc(O)c2c1O[C@H](c1ccc(O)c(O)c1)[C@@H](O)C2` [PROCYANIDIN B1]: 6.14 MU and 5.94 MU.
The corresponding values for `Oc1cc(O)c2c(c1)O[C@H](c1cc(O)c(O)c(O)c1)[C@H](O)C2` [EPIGALLOCATECHIN] are 3.71 MU and 3.56 MU.
The corresponding values for `O=c1c(O)c(-c2ccc(O)cc2O)oc2cc(O)cc(O)c12` [MORIN] are 2.68 MU and 2.75 MU.
Consider `O=C1C[C@@H](c2ccc(O)cc2)Oc2cc(O)cc(O)c21` [NARINGENIN], for which the Activity in data set [1] came to 0.217 MU; in data set [2], 0.136 MU.
As to `O=C1O[C@H]([C@@H](O)CO)C(O)=C1O`, the Activity in data set [3] came to 100 mg/L.
In the case of `O=c1cc(-c2ccc(O)cc2)oc2cc(O)cc(O)c12` [APIGENIN], the figures for the Activity in data set [1] and in data set [2] were 0.086 MU and 0.041 MU, respectively.
The corresponding values for `O=C(/C=C/c1ccc(O)c(O)c1)c1ccc(O)cc1O` [BUTEIN] are 2.42 MU and 2.27 MU.
In the case of `Oc1cc(O)c2c(c1)OC(c1ccc(O)c(O)c1)C(O)C2` (stereo not given), the Activity in data set [2] came to 2.95 MU.
For the molecule `O=c1c(O)c(-c2ccccc2)oc2ccccc12` [FLAVONOL], the results for the Activity in data set [1] and in data set [2] were 0.707 MU and 0.484 MU, respectively.
Turning to `O=c1cc(-c2ccc(O)c(O)c2)oc2cc(O[C@@H]3O[C@H](CO)[C@@H](O)[C@H](O)[C@H]3O)cc(O)c12` [GALUTEOLIN], the values for the Activity in data set [1] and in data set [2] were 1.47 MU and 1.39 MU, respectively.
For `O=c1cc(-c2ccc(O)cc2)oc2c([C@@H]3O[C@H](CO)[C@@H](O)[C@H](O)[C@H]3O)c(O)cc(O)c12` [VITEXIN], the values for the Activity in data set [1] and in data set [2] were 0.216 MU and 0.205 MU, respectively.
As for `O=c1cc(-c2ccc(O)cc2)oc2cc(O[C@@H]3O[C@H](CO)[C@@H](O)[C@H](O)[C@H]3O)cc(O)c12` [APIGETRIN], the Activity in data set [1] came to 0.083 MU; in data set [2], 0.05 MU.
The corresponding values for `C[C@@H]1O[C@@H](OC[C@H]2O[C@@H](Oc3c(-c4ccc(O)c(O)c4)oc4cc(O)cc(O)c4c3=O)[C@H](O)[C@@H](O)[C@@H]2O)[C@H](O)[C@H](O)[C@H]1O` [RUTIN] are 2.02 MU and 2.33 MU.
The corresponding values for `O=c1cc(-c2ccccc2)oc2cc(O)cc(O)c12` [CHRYSIN] are 0.081 MU and 0.053 MU.
The matching figures for `O=c1c(-c2ccc(O)cc2)coc2cc(O)ccc12` [DAIDZEIN]: 0.101 MU and 0.033 MU.
In the case of `Oc1cc(O)c2c(c1)O[C@H](c1ccc(O)c(O)c1)[C@H](O)C2` [(-)-EPICATECHIN], the Activity is 3.08 MU in data set [1] and 3.18 MU in data set [2].
Take `O=C(O[C@@H]1Cc2c(O)cc(O)cc2O[C@@H]1c1ccc(O)c(O)c1)c1cc(O)c(O)c(O)c1` [EPICATECHIN GALLATE]: the results for the Activity in data set [1] and in data set [2] were 5.29 MU and 5.26 MU, respectively.
The matching figures for `O=c1c(O[C@@H]2O[C@H](CO)[C@@H](O)[C@H](O)[C@H]2O)c(-c2ccc(O)c(O)c2)oc2cc(O)cc(O)c12` [ISOQUERCETIN]: 2.39 MU and 2.16 MU.
The corresponding values for `COc1ccc([C@@H]2CC(=O)c3c(O)cc(O)cc3O2)cc1O` [HESPERETIN] are 0.403 MU and 0.268 MU.
The corresponding values for `O=C(O[C@H]1Cc2c(O)cc(O)cc2O[C@@H]1c1ccc(O)c(O)c1)c1cc(O)c(O)c(O)c1` [CATECHIN GALLATE] are 5.25 MU and 5.56 MU.
As for `O=c1c(O)c(-c2cc(O)c(O)c(O)c2)oc2cc(O)cc(O)c12` [MYRICETIN], the Activity is 1.31 MU in data set [1] and 1.38 MU in data set [2].
The corresponding values for `Oc1cc(O)c2c(c1)O[C@H](c1ccc(O)c(O)c1)[C@H](O)[C@H]2c1c(O)cc(O)c2c1O[C@H](c1ccc(O)c(O)c1)[C@H](O)[C@H]2c1c(O)cc(O)c2c1O[C@H](c1ccc(O)c(O)c1)[C@H](O)C2` [PROCYANIDIN C1] are 8.29 MU and 8.79 MU.
The corresponding values for `C[C@@H]1O[C@@H](Oc2c(-c3ccc(O)c(O)c3)oc3cc(O)cc(O)c3c2=O)[C@H](O)[C@H](O)[C@H]1O` [QUERCITRIN] are 2.18 MU and 2.57 MU.
For the molecule `Oc1cc(O)c2c(c1)O[C@H](c1ccc(O)c(O)c1)[C@@H](O)C2` [CATECHIN], the Activity in data set [1] was determined as 3.04 MU.
Take `C[C@@H]1O[C@@H](O[C@H]2[C@H](Oc3cc(O)c4c(c3)O[C@H](c3ccc(O)cc3)CC4=O)O[C@H](CO)[C@@H](O)[C@@H]2O)[C@H](O)[C@H](O)[C@H]1O` [NARINGIN]: the values for the Activity in data set [1] and in data set [2] were 0.098 MU and 0.077 MU, respectively.
`O=c1c(-c2ccc(O)cc2)coc2cc(O)cc(O)c12` [GENISTEIN]: the Activity was found to be 0.123 MU in data set [1] and 0.095 MU in data set [2].
Turning to `O=c1c(-c2ccc(O)cc2)coc2cc(O[C@@H]3O[C@H](CO)[C@@H](O)[C@H](O)[C@H]3O)ccc12` [DAIDZIN], the figures for the Activity in data set [1] and in data set [2] were 0.072 MU and 0.035 MU, respectively.
For the molecule `O=C(O[C@@H]1Cc2c(O)cc(O)cc2O[C@@H]1c1cc(O)c(O)c(O)c1)c1cc(O)c(O)c(O)c1` [EPIGALOCATECHIN GALLATE], the figures for the Activity in data set [1] and in data set [2] were 5.95 MU and 6.08 MU, respectively.
The corresponding values for `COc1cc2c(=O)c(-c3ccc(O)cc3)coc2cc1O` [GLYCITEIN] are 0.097 MU and 0.02 MU.
The matching figures for `O=c1c(O)c(-c2ccc(O)c(O)c2)oc2cc(O)cc(O)c12` [QUERCETIN]: 4.42 MU and 4.6 MU.
The corresponding values for `O=c1c(O)c(-c2ccccc2)oc2cc(O)cc(O)c12` [GALANGIN] are 1.12 MU and 0.705 MU.
In the case of `O=c1c(O)c(-c2ccc(O)cc2)oc2cc(O)cc(O)c12` [KAEMPFEROL], the Activity in data set [1] was 1.59 MU; in data set [2], 1.32 MU.
The matching figures for `COc1ccc([C@@H]2CC(=O)c3c(O)cc(O[C@@H]4O[C@H](CO[C@@H]5O[C@@H](C)[C@H](O)[C@@H](O)[C@H]5O)[C@@H](O)[C@H](O)[C@H]4O)cc3O2)cc1O` [HESPERIDIN]: 0.104 MU and 0.075 MU.
The corresponding values for `O=c1c(-c2ccc(O)cc2)coc2cc(O[C@@H]3O[C@H](CO)[C@@H](O)[C@H](O)[C@H]3O)cc(O)c12` [GENISTIN] are 0.077 MU and 0.026 MU.

The values are drawn from ChEMBL document CHEMBL1157690, “Reliability of bond dissociation enthalpy calculated by the PM6 method and experimental TEAC values in antiradical QSAR of flavonoids” (Bioorg Med Chem, 2010).
